Columns and labels:
Rattus norvegicus [1] = assay: Antilipidemic activity against Sprague-Dawley rat assessed as liver triglyceride level per gram of tissue at 0.4 mmol/kg, po twice daily for 7 days (reference value: 3.87 +/- 0.59 mg); format: functional
Rattus norvegicus [2] = assay: Antilipidemic activity against Sprague-Dawley rat assessed as increase in liver NADPH:cyt c reductase activity at 0.4 mmol/kg, po twice daily for 7 days (reference value: 164 +/- 16.7 nmol/mg/min); format: functional
Rattus norvegicus [3] = assay: Antilipidemic activity against Sprague-Dawley rat assessed as increase in liver cyt P-450 activity measured per mg of protein at 0.4 mmol/kg, po twice daily for 7 days (reference value: 0.833 +/- 0.0644 nmol); format: functional
Rattus norvegicus [4] = assay: Antilipidemic activity against Sprague-Dawley rat assessed as increase in liver cyt b activity measured per mg of protein at 0.4 mmol/kg, po twice daily for 7 days (reference value: 0.310 +/- 0.052 nmol); format: functional
Rattus norvegicus [5] = assay: Effect on microsomal protein content in Sprague-Dawley rat at 0.4 mmol/kg, po twice daily for 7 days (reference value: 25.8 +/- 1.17 mg/g); format: functional
Rattus norvegicus [6] = assay: Antilipidemic activity against Sprague-Dawley rat assessed as increase in liver ethylmorphine N-demethylase activity measured as HCHO formation per mg/min at 0.4 mmol/kg, po twice daily for 7 days (reference value: 6.48 +/- 0.70 nmol); format: functional
Rattus norvegicus [7] = assay: Antilipidemic activity against Sprague-Dawley rat assessed as increase in liver to body weight at 0.4 mmol/kg, po twice daily for 7 days (reference value: 3.96 +/- 0.20 mg/g); format: functional
[8] = molecular target: T1, 3-hydroxy-3-methylglutaryl-coenzyme A reductase (Rattus norvegicus) (UniProt P51639); assay: Inhibition of Sprague-Dawley rat liver microsome HMG-CoA reductase activity assessed as mevalonic acid formation form DL-3-hydroxy-3-methylglutaryl[3-14C]coenzyme by scintillation counting (reference value: 13.2 +/- 3.30 nmol/mg/h)
T1 sequence (whole entry): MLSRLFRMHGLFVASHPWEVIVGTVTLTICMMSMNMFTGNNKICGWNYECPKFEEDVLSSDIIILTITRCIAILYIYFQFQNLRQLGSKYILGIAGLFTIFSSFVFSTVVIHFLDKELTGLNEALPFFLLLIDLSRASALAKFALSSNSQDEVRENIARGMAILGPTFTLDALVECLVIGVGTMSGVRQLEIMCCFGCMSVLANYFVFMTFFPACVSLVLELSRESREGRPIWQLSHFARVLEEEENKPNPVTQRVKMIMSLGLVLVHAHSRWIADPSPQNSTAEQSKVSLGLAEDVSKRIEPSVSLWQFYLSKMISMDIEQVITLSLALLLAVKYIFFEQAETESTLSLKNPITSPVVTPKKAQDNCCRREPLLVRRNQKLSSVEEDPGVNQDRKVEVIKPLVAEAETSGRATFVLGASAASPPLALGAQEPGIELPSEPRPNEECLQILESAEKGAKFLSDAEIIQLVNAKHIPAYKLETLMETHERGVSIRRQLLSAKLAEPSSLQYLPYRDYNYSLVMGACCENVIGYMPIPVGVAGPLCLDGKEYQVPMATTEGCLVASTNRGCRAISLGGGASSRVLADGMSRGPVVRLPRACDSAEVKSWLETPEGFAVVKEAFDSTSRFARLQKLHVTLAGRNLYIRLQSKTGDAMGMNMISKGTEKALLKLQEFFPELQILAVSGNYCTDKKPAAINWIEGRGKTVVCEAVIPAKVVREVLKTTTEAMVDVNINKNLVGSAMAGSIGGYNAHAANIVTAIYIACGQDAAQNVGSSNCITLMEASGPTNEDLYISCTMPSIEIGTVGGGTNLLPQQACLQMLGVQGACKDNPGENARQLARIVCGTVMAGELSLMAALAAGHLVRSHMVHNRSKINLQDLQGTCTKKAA

Rattus norvegicus [9] = assay: Effect on liver weight in Sprague-Dawley rat at 0.4 mmol/kg, po twice daily for 7 days (reference value: 11.8 +/- 0.93 g); format: ADME, organism-based; details: in vivo, 168 h
Rattus norvegicus [10] = assay: Antilipidemic activity against Sprague-Dawley rat assessed as liver cholesterol level per gram of tissue at 0.4 mmol/kg, po twice daily for 7 days (reference value: 2.96 +/- 0.42 mg); format: functional

## O=C1OCC[C@H]2c3cc(Cl)ccc3O[C@@H]12 (relative stereo)
Rattus norvegicus [1]
  Activity: 5.66 mg
Rattus norvegicus [2]
  Activity: 210 nmol/mg/min
Rattus norvegicus [3]
  Activity: 0.962 nmol
Rattus norvegicus [4]
  Activity: 0.292 nmol
Rattus norvegicus [5]
  Activity: 25.2 mg/g
Rattus norvegicus [6]
  Activity: 7.96 nmol
Rattus norvegicus [7]
  Activity: 4.03%
[8]
  Activity: 11 nmol/mg/h
Rattus norvegicus [9]
  Activity: 12.1 g
Rattus norvegicus [10]
  Activity: 2.93 mg

## CCOC(=O)C(C)(C)Oc1ccc(Cl)cc1 [CLOFIBRATE]
Rattus norvegicus [1]
  Activity: 4.65 mg
Rattus norvegicus [2]
  Activity: 246 nmol/mg/min
Rattus norvegicus [3]
  Activity: 1.06 nmol
Rattus norvegicus [4]
  Activity: 0.293 nmol
Rattus norvegicus [5]
  Activity: 29 mg/g
Rattus norvegicus [6]
  Activity: 7.82 nmol
Rattus norvegicus [7]
  Activity: 4.84%
[8]
  Activity: 11.3 nmol/mg/h
Rattus norvegicus [9]
  Activity: 15.1 g
Rattus norvegicus [10]
  Activity: 2.59 mg

## C[C@@]12Oc3ccc(Cl)cc3[C@@H]1CCOC2=O (relative stereo)
Rattus norvegicus [1]
  Activity: 7.75 mg
Rattus norvegicus [2]
  Activity: 315 nmol/mg/min
Rattus norvegicus [3]
  Activity: 1.62 nmol
Rattus norvegicus [4]
  Activity: 0.421 nmol
Rattus norvegicus [5]
  Activity: 31.9 mg/g
Rattus norvegicus [6]
  Activity: 11.1 nmol
Rattus norvegicus [7]
  Activity: 4.56%
[8]
  Activity: 8.2 nmol/mg/h
Rattus norvegicus [9]
  Activity: 14.1 g
Rattus norvegicus [10]
  Activity: 3.19 mg
